Results reported in patent US5278052A, “Process for the simultaneous production of benanomicins A and B” (Zaidan Hojin Biseibutsu Kagaku Kenkyu Kai, priority 1987, dated 1994).
In brackets after ≈: the same amount, converted by molar mass. Counter-ions that a name gives are not always drawn. Like-named read-outs stand apart in the source and are kept apart here.

Key:
[1] = Distinction between the basic, acidic and neutral natures of substance; format: physicochemical
Xanthomonas citri = assay: MIC by standard serial dilution method; format: cell-based
[2] = test system: Saccharomyces cerevisiae F-7; assay: MIC by standard serial dilution method (fungi); format: cell-based; conditions: F7, dexylosylbenanomicin B as hydrochloride
Pyricularia oryzae = assay: microbe, parasite or virus in culture; format: cell-based
Candida albicans 3147 = assay: MIC by standard serial dilution method (fungi); format: cell-based; conditions: dexylosylbenanomicin B as hydrochloride
[3] = test system: Cryptococcus neoformans F-10; assay: MIC by standard serial dilution method (fungi); format: cell-based
in vivo = conditions: mouse, iv
[4] = test system: Trichophyton mentagrophytes (883); assay: MIC by standard serial dilution method (fungi); format: cell-based; conditions: dexylosylbenanomicin B as hydrochloride
Candida krusei F-5 = assay: MIC by standard serial dilution method (fungi); format: cell-based; conditions: Pichia kudriavzevii, F5, dexylosylbenanomicin B as hydrochloride
Aspergillus niger = assay: MIC by standard serial dilution method (fungi); format: cell-based; conditions: dexylosylbenanomicin B as hydrochloride
[5] = test system: Candida pseudotropicalis F-2; assay: MIC by standard serial dilution method (fungi); format: cell-based; conditions: Kluyveromyces marxianus, F2
Pellicularia sasakii = assay: MIC by standard serial dilution method (fungi); format: cell-based; conditions: dexylosylbenanomicin B as hydrochloride
Candida Yu-1200 = assay: MIC by standard serial dilution method (fungi); format: cell-based; conditions: YU1200, dexylosylbenanomicin B as hydrochloride
[6] = test system: Trichophyton asteroides 429; assay: MIC by standard serial dilution method (fungi); format: cell-based; conditions: dexylosylbenanomicin B as hydrochloride
Cochliobolus miyabeanus = assay: MIC by standard serial dilution method (fungi); format: cell-based; conditions: Bipolaris oryzae
Xanthomonas oryzae = assay: microbe, parasite or virus in culture; format: cell-based
various kinds of fungi = assay: antifungal activity, summary of Table 2; format: cell-based; conditions: as revealed from Table 2
Excerpt: 4. Antibacterial and antifungal activities of benanomicin A, benanomicin B and dexylosylbenanomicn B (as the hydrochloride) are described below.

Candida tropicalis F-1 = assay: MIC by standard serial dilution method (fungi); format: cell-based; conditions: F1, dexylosylbenanomicin B as hydrochloride
Proteus vulgaris OX19 = assay: MIC by standard serial dilution method (bacteria)
[7] = test system: Staphylococcus aureus Smith; assay: MIC by standard serial dilution method (bacteria)
[8] = test system: Klebsiella pneumoniae PCI602; assay: MIC by standard serial dilution method (bacteria)
[9] = test system: Corynebacterium bovis 1810; assay: MIC by standard serial dilution method (bacteria)
Escherichia coli NIHJ = assay: MIC by standard serial dilution method (bacteria)
[10] = test system: Shigella dysenteriae JS11910; assay: MIC by standard serial dilution method (bacteria)
[11] = test system: Pseudomonas aeruginosa A3; assay: MIC by standard serial dilution method (bacteria)
[12] = test system: Mycobacterium smegmatis ATCC607; assay: MIC by standard serial dilution method (bacteria); conditions: Mycolicibacterium smegmatis
Bacillus subtilis PCI219 = assay: MIC by standard serial dilution method (bacteria)
Escherichia coli K-12 = assay: MIC by standard serial dilution method (bacteria); conditions: K12
Micrococcus luteus FDA16 = assay: MIC by standard serial dilution method (bacteria)
[13] = test system: Staphylococcus aureus FDA209P; assay: MIC by standard serial dilution method (bacteria)
Salmonella typhi T-63 = assay: MIC by standard serial dilution method (bacteria); conditions: Salmonella enterica
Candida albicans = assay: therapeutic effect on experimental Candida infection in mice; conditions: 3 times (0, 6, 24 h)
Jcl:ICR-strain mice = conditions: mouse, in vivo, iv, 600 mg/kg
[14] = Candida pseudotropicalis F-2, dexylosylbenanomicin B as hydrochloride, read-out: MIC

COc1cc(O)c2c(c1)C(=O)c1c(cc3c(c1O)-c1c(cc(C)c(C(=O)N[C@H](C)C(=O)O)c1O)[C@H](O[C@@H]1O[C@H](C)[C@H](N)[C@H](O[C@@H]4OC[C@@H](O)[C@H](O)[C@H]4O)[C@H]1O)[C@H]3O)C2=O [Benanomicin B hydrochloride]
Solubility (Solubility; acetone): Only sparingly soluble
Solubility (Solubility; chloroform): Only sparingly soluble
Solubility (Solubility; dimethylformamide): soluble
Solubility (Solubility; dimethylsulfoxide): soluble
Solubility (Solubility; ethyl acetate): Only sparingly soluble
Solubility (Solubility; methanol): soluble
Solubility (Solubility; water): soluble
Distinction between the basic, acidic and neutral natures of substance [1]: Amphoteric substance

COc1cc(O)c2c(c1)C(=O)c1c(cc3c(c1O)-c1c(cc(C)c(C(=O)N[C@H](C)C(=O)O)c1O)C(O[C@@H]1O[C@H](C)[C@H](N)[C@H](O)[C@H]1O)C3O)C2=O (stereo partly shown) [Dexylosylbenanomicin B hydrochloride]
Distinction between the basic, acidic and neutral natures of substance [1]: Amphoteric substance

COc1cc(O)c2c(c1)C(=O)c1c(cc3c(c1O)-c1c(cc(C)c(C(=O)N[C@H](C)C(=O)O)c1O)C(O[C@@H]1O[C@H](C)[C@H](N)[C@H](O)[C@H]1O)C3O)C2=O (stereo partly shown) [Dexylosylbenanomicin B]
MIC (Xanthomonas citri): 100 µg/mL (≈ 144 µM)
MIC [2]: 6.25 µg/mL (≈ 9 µM)
MIC (Pyricularia oryzae): 25 µg/mL (≈ 36 µM)
MIC (Candida albicans 3147): 6.25 µg/mL (≈ 9 µM)
MIC ([3]; F10): 3.13 µg/mL (≈ 4.51 µM)
MTD (in vivo): 100 mg/kg
MIC [4]: 50 µg/mL (≈ 72 µM)
MIC (Candida krusei F-5): 12.5 µg/mL (≈ 18 µM)
MIC (Aspergillus niger): 25 µg/mL (≈ 36 µM)
MIC [5]: 3.13 µg/mL (≈ 4.51 µM)
MIC (Pellicularia sasakii): 25 µg/mL (≈ 36 µM)
MIC (Candida Yu-1200): 6.25 µg/mL (≈ 9 µM)
MIC [6]: 50 µg/mL (≈ 72 µM)
MIC (Cochliobolus miyabeanus): 50 µg/mL (≈ 72 µM)
MIC (Xanthomonas oryzae): 100 µg/mL (≈ 144 µM)
antifungal activities against various kinds of fungi (various kinds of fungi): substantial antifungal activities
MIC (Candida tropicalis F-1): 6.25 µg/mL (≈ 9 µM)

COc1cc(O)c2c(c1)C(=O)c1c(cc3c(c1O)-c1c(cc(C)c(C(=O)N[C@H](C)C(=O)O)c1O)C(O[C@@H]1O[C@H](C)[C@H](N)[C@H](O[C@@H]4OC[C@@H](O)[C@H](O)[C@H]4O)[C@H]1O)C3O)C2=O (stereo partly shown) [Benanomicin B]
MIC (Xanthomonas citri): > 100 µg/mL
MIC [2]: 12.5 µg/mL (≈ 15.1 µM)
MIC (Proteus vulgaris OX19): > 100 µg/mL
MIC [7]: > 100 µg/mL
MIC [8]: > 100 µg/mL
MIC [9]: 3.12 µg/mL (≈ 3.77 µM)
MIC (Pyricularia oryzae): 50 µg/mL (≈ 60.5 µM)
MIC (Candida albicans 3147): 25 µg/mL (≈ 30.2 µM)
MIC (Escherichia coli NIHJ): > 100 µg/mL
MIC ([3]; F10, read-out: MIC): 1.56 µg/mL (≈ 1.89 µM)
MIC [10]: > 100 µg/mL
MTD (in vivo): 100 mg/kg
MIC [11]: > 100 µg/mL
MIC [4]: 25 µg/mL (≈ 30.2 µM)
MIC (Candida krusei F-5): 6.25 µg/mL (≈ 7.56 µM)
MIC (Aspergillus niger): > 100 µg/mL
MIC [5, 14]: 6.25 µg/mL (≈ 7.56 µM)
MIC (Pellicularia sasakii): 50 µg/mL (≈ 60.5 µM)
MIC [12]: > 100 µg/mL
MIC (Candida Yu-1200): 12.5 µg/mL (≈ 15.1 µM)
MIC (Bacillus subtilis PCI219): > 100 µg/mL
MIC [6]: 25 µg/mL (≈ 30.2 µM)
MIC (Cochliobolus miyabeanus): > 100 µg/mL
MIC (Xanthomonas oryzae): > 100 µg/mL
MIC (Escherichia coli K-12): > 100 µg/mL
MIC (Micrococcus luteus FDA16): 3.12 µg/mL (≈ 3.77 µM)
MIC [13]: > 100 µg/mL
MIC (Salmonella typhi T-63): > 100 µg/mL
antifungal activities against various kinds of fungi (various kinds of fungi): substantial antifungal activities
MIC (Candida tropicalis F-1): > 100 µg/mL

COc1cc(O)c2c(c1)C(=O)c1c(cc3c(c1O)-c1c(cc(C)c(C(=O)N[C@H](C)C(=O)O)c1O)C(O[C@@H]1O[C@H](C)[C@H](O)[C@H](O[C@@H]4OC[C@@H](O)[C@H](O)[C@H]4O)[C@H]1O)C3O)C2=O (stereo partly shown) [Benanomicin A]
MIC (Xanthomonas citri): > 100 µg/mL
MIC [2]: 6.25 µg/mL (≈ 7.55 µM)
MIC (Proteus vulgaris OX19): > 100 µg/mL
MIC [7]: > 100 µg/mL
MIC [8]: > 100 µg/mL
Number of surviving mice (Candida albicans; 0.2 mg/mouse, subcutaneous): 0/5
Percent of the number of surviving mice against the tested mice (Candida albicans; 0.2 mg/mouse, subcutaneous): 0%
Number of surviving mice (Candida albicans; 0.3 mg/mouse, subcutaneous): 2/5
Percent of the number of surviving mice against the tested mice (Candida albicans; 0.3 mg/mouse, subcutaneous): 40%
Number of surviving mice (Candida albicans; 0.4 mg/mouse, subcutaneous): 1/5
Percent of the number of surviving mice against the tested mice (Candida albicans; 0.4 mg/mouse, subcutaneous): 20%
Number of surviving mice (Candida albicans; 0.8 mg/mouse, subcutaneous): 5/5
Percent of the number of surviving mice against the tested mice (Candida albicans; 0.8 mg/mouse, subcutaneous): 100%
Number of surviving mice (Candida albicans; 1.5 mg/mouse, oral): 0/5
Percent of the number of surviving mice against the tested mice (Candida albicans; 1.5 mg/mouse, oral): 0%
Number of surviving mice (Candida albicans; 3.0 mg/mouse, oral): 0/5
Percent of the number of surviving mice against the tested mice (Candida albicans; 3.0 mg/mouse, oral): 0%
Number of surviving mice (Candida albicans; 6.0 mg/mouse, oral): 3/5
Percent of the number of surviving mice against the tested mice (Candida albicans; 6.0 mg/mouse, oral): 60%
Number of surviving mice (Candida albicans; 12.0 mg/mouse, oral): 3/5
Percent of the number of surviving mice against the tested mice (Candida albicans; 12.0 mg/mouse, oral): 60%
MIC [9]: 12.5 µg/mL (≈ 15.1 µM)
MIC (Pyricularia oryzae): 25 µg/mL (≈ 30.2 µM)
MIC (Candida albicans 3147): 25 µg/mL (≈ 30.2 µM)
MIC (Escherichia coli NIHJ): > 100 µg/mL
MIC ([3]; F10, read-out: MIC): 3.12 µg/mL (≈ 3.77 µM)
MIC [10]: > 50 µg/mL
MTD (in vivo): 600 mg/kg
MIC [11]: > 50 µg/mL
MIC [4]: 50 µg/mL (≈ 60.4 µM)
MIC (Candida krusei F-5): 6.25 µg/mL (≈ 7.55 µM)
mice killed (Jcl:ICR-strain mice): none of the mice was killed
MIC (Aspergillus niger): 50 µg/mL (≈ 60.4 µM)
MIC [5, 14]: 6.25 µg/mL (≈ 7.55 µM)
MIC (Pellicularia sasakii): 25 µg/mL (≈ 30.2 µM)
MIC [12]: > 100 µg/mL
MIC (Candida Yu-1200): 12.5 µg/mL (≈ 15.1 µM)
MIC (Bacillus subtilis PCI219): > 100 µg/mL
MIC [6]: 50 µg/mL (≈ 60.4 µM)
MIC (Cochliobolus miyabeanus): > 100 µg/mL
MIC (Xanthomonas oryzae): > 100 µg/mL
MIC (Escherichia coli K-12): > 100 µg/mL
MIC (Micrococcus luteus FDA16): 12.5 µg/mL (≈ 15.1 µM)
MIC [13]: 100 µg/mL (≈ 121 µM)
MIC (Salmonella typhi T-63): > 100 µg/mL
Solubility (Solubility; acetone): Only sparingly soluble
Solubility (Solubility; alkaline water): soluble
Solubility (Solubility; chloroform): Only sparingly soluble
Solubility (Solubility; dimethylformamide): soluble
Solubility (Solubility; dimethylsulfoxide): soluble
Solubility (Solubility; ethyl acetate): Only sparingly soluble
Solubility (Solubility; methanol): Only sparingly soluble
Solubility (Solubility; water): insoluble
antifungal activities against various kinds of fungi (various kinds of fungi): substantial antifungal activities
MIC (Candida tropicalis F-1): 25 µg/mL (≈ 30.2 µM)
Distinction between the basic, acidic and neutral natures of substance [1]: Acidic substance
